{
  "source": "paper PMC3335862",
  "about": "“Novel Small-Molecule Inhibitors of Hepatitis C Virus Entry Block Viral Spread and Promote Viral Clearance in Cell Culture” (PLoS ONE, 2012)",
  "key": {"HCVpp GT 1b-V719L": {"tested_on": "HCVpp GT 1b-V719L", "type": "cell-based, hepatitis C virus", "conditions": "Genotype 1b background"}, "GT 1a/2a HCV [1]": {"tested_on": "GT 1a/2a HCV", "test": "HCV viral spread assay (cell-free and cell-cell transmission), flow cytometry", "type": "cell-based, hepatitis C virus", "conditions": "72 h; PRO0371155 1 µM, PA-25 10 µg/mL; DMSO control 18.3, Background 0.31", "text": "Figure 3 PRO0371155 inhibits HCV infection by both cell-free and cell-cell modes of transmission. […] TEXT PRINTED IN THE PICTURE: PA-25: 7.54; 19.9; 66.8; 5.75 | DMSO: 4.4; 29.8; 47.6; 18.3 | PRO0371155: 8.1; 25.7; 65.7; 0.48 DOUBTS OF THE COPYIST ABOUT THIS PICTURE: All values are quadrant numbers of flow cytometry plots, given in the order upper left, upper right, lower left, lower right. The picture prints no measure or unit with them. / The print is very small, so 3, 5, 6, 8 and 9 cannot be told apart with certainty in any of the values below. / PA-25: 7.54, 19.9, 66.8 (partly hidden by data points; may be 65.8 or 68.8), 5.75 / DMSO: 4.4, 29.8 (or 29.6), 47.6 (partly hidden by data points; may be 47.8), 18.3 (or 18.8) / PRO0371155: 8.1, 25.7, 65.7 (partly hidden by data points), 0.48 (or 0.46) / The plot headed 'Background' (0.016, 5.44e-3, 99.7, 0.31) is left out because it is a staining control and not a substance.\n8.8.7 software (TreeStar).\nTo determine whether the triazine series can block both routes of infection, we utilized a flow cytometry-based cell-to-cell transmission assay. Infected cells, stained with CellTracker green, were mixed with naïve cells in the presence or absence of entry inhibitors."}, "HCVpp genotype 4": {"tested_on": "HCVpp genotype 4", "test": "microbe, parasite or virus in culture", "type": "cell-based", "conditions": "Hepatitis C virus; n = 1 strain"}, "HCVpp GT 1b-V719I": {"tested_on": "HCVpp GT 1b-V719I", "type": "cell-based, hepatitis C virus", "conditions": "Genotype 1b background"}, "HCVpp GT 1a-V719I": {"tested_on": "HCVpp GT 1a-V719I", "type": "cell-based, hepatitis C virus"}, "HCVpp GT 1a V719A": {"tested_on": "HCVpp GT 1a V719A", "type": "cell-based, hepatitis C virus"}, "GT 1a/2a HCV [2]": {"tested_on": "GT 1a/2a HCV", "test": "Quantification of HCV RNA by qRT-PCR in long term treated cultures"}, "HCVpp GT1a Pass. Ctrl.": {"tested_on": "HCVpp GT1a Pass. Ctrl.", "test": "microbe, parasite or virus in culture", "type": "cell-based", "conditions": "Hepatitis C virus, envelope from DMSO passage control culture"}, "GT 1a/2a HCV [3]": {"tested_on": "GT 1a/2a HCV", "test": "HCV cell culture infection assay (Renilla luciferase), GT 1a/2a", "conditions": "Hepatitis C virus, GT1A, read-out: HCV Cell Culture EC50 GT 1a/2a"}, "VSVpp": {"tested_on": "VSVpp", "test": "microbe, parasite or virus in culture", "type": "cell-based, VSV"}, "HCVpp GT 1b": {"tested_on": "HCVpp GT 1b", "test": "microbe, parasite or virus in culture", "type": "cell-based", "conditions": "Hepatitis C virus, GT1B"}, "[4]": {"tested_on": "HCVpp pseudotyped with the GT1a envelope", "test": "microbe, parasite or virus in culture", "type": "cell-based", "conditions": "Hepatitis C virus, Hep3B cells, 72 h"}, "HCVpp GT1a-V719L": {"tested_on": "HCVpp GT1a-V719L", "type": "cell-based, hepatitis C virus", "conditions": "GT1a background"}, "HCVpp T388A": {"tested_on": "HCVpp T388A", "type": "cell-based, hepatitis C virus"}, "[5]": {"tested_on": "HCVpp typed with envelopes representing genotypes 2a, 2b, 3, and 6", "test": "microbe, parasite or virus in culture", "type": "cell-based", "conditions": "Hepatitis C virus"}, "GT 1b/2a HCV": {"tested_on": "GT 1b/2a HCV", "test": "HCV cell culture infection assay (Renilla luciferase), GT 1b/2a", "conditions": "Hepatitis C virus, GT1B, read-out: HCV Cell Culture EC50 GT 1b/2a"}, "in vitro": {"test": "in vitro", "conditions": "human"}, "[6]": {"tested_on": "Hep3B, Huh-7, 293T, HeLa, Daudi, Ramos, Jurkat, primary hepatocyte", "conditions": "CellTiter Glo assay; data not shown except Hep3B"}, "GT 1a/2a HCV [7]": {"tested_on": "GT 1a/2a HCV"}, "HCVpp GT 1b V719A": {"tested_on": "HCVpp GT 1b V719A", "type": "cell-based, hepatitis C virus", "conditions": "Genotype 1b background"}, "HCVpp V719G": {"tested_on": "HCVpp V719G", "type": "cell-based, hepatitis C virus", "conditions": "GT1a background"}, "[8]": {"conditions": "culture initially 33% HCV+, 1 µM"}},
  "note": "Read-outs that look alike come from different tables or passages of the source.",
  "data": [
    {"smiles": "CS(=O)(=O)N1CCC(Nc2nc(Nc3cccc(C(F)(F)F)c3)nc(OCC(F)(F)F)n2)CC1", "note": "[PRO0371155]", "values": [
      {"measurement": "EC50", "setting": "HCVpp GT 1b-V719L", "result": "> 1000", "unit": "nM"},
      {"measurement": "fold change of EC50 vs parent GT 1b, V719L", "setting": "HCVpp GT 1b-V719L", "result": 3, "unit": "×"},
      {"measurement": "newly infected HCV+ cells (lower right quadrant)", "setting": "GT 1a/2a HCV [1]", "result": 0.48, "unit": "%"},
      {"measurement": "EC50", "setting": "HCVpp genotype 4", "result": 190, "unit": "nM"},
      {"measurement": "EC50", "setting": "HCVpp GT 1b-V719I", "result": "> 1000", "unit": "nM"},
      {"measurement": "fold change of EC50 vs parent GT 1b, V719I", "setting": "HCVpp GT 1b-V719I", "result": 3, "unit": "×"},
      {"measurement": "reduction in potency vs parent GT1a envelope, V719I", "setting": "HCVpp GT 1a-V719I; GT1a background", "result": 34, "unit": "fold"},
      {"measurement": "EC50", "setting": "HCVpp GT 1a-V719I; Genotype 1a background", "result": 67, "unit": "nM"},
      {"measurement": "fold change of EC50 vs parent GT 1a, V719I", "setting": "HCVpp GT 1a-V719I; Genotype 1a background", "result": 34, "unit": "×"},
      {"measurement": "reduction in potency vs parent GT1a envelope, V719A", "setting": "HCVpp GT 1a V719A; GT1a background", "result": 46, "unit": "fold"},
      {"measurement": "EC50", "setting": "HCVpp GT 1a V719A; Genotype 1a background", "result": 92, "unit": "nM"},
      {"measurement": "fold change of EC50 vs parent GT 1a, V719A", "setting": "HCVpp GT 1a V719A; Genotype 1a background", "result": 46, "unit": "×"},
      {"measurement": "time HCV RNA maintained at background levels after removal of compound", "setting": "GT 1a/2a HCV [2]", "result": "> 50", "unit": "days"},
      {"measurement": "HCV RNA levels", "setting": "GT 1a/2a HCV [2]; after 100 days in the presence of compound, 1 µM, limit of quantification", "result": "< 0.5", "unit": "copies/cell"},
      {"measurement": "EC50", "setting": "HCVpp GT1a Pass. Ctrl.", "result": 4, "unit": "nM"},
      {"measurement": "EC50", "setting": "GT 1a/2a HCV [3]", "result": 9, "unit": "nM"},
      {"measurement": "inhibition of entry of pseudoviral particles with envelope glycoproteins from irrelevant viruses including VSV", "setting": "VSVpp", "result": "did not inhibit"},
      {"measurement": "EC50", "setting": "VSVpp; Vesicular stomatitis virus, read-out: VSVpp EC50", "result": 39000, "unit": "nM"},
      {"measurement": "EC50", "setting": "HCVpp GT 1b; Hep3B, parent GT 1b envelope, read-out: EC50, HCVpp GT 1b", "result": 317, "unit": "nM"},
      {"measurement": "EC50", "setting": "HCVpp GT 1b; median across panel of GT 1b envelopes from HCV+ patient sera (n = strains), Hep3B cells, 72 h, read-out: HCVpp Median EC50 GT 1b", "result": "> 825", "unit": "nM"},
      {"measurement": "EC50", "setting": "[4]; median across panel of GT 1a envelopes from HCV+ patient sera (n = strains), read-out: HCVpp Median EC50 GT 1a", "result": 9, "unit": "nM"},
      {"measurement": "EC50", "setting": "[4]; prototypical/parent GT 1a envelope, read-out: GT1a (EC50), HCVpp", "result": 2, "unit": "nM"},
      {"measurement": "reduction in activity vs parent GT1a envelope, V719L", "setting": "HCVpp GT1a-V719L", "result": 500, "unit": "fold"},
      {"measurement": "influence of T388A on susceptibility in the HCVpp assay", "setting": "HCVpp T388A", "result": "did not have any influence"},
      {"measurement": "EC50", "setting": "HCVpp T388A; GT1a background", "result": 2, "unit": "nM"},
      {"measurement": "EC50", "setting": "[5]", "result": "> 1000", "unit": "nM"},
      {"measurement": "EC50", "setting": "GT 1b/2a HCV", "result": "> 1000", "unit": "nM"},
      {"measurement": "CC50", "setting": "in vitro", "result": 31000, "unit": "nM"},
      {"measurement": "cytotoxicity against a panel of cell lines and primary cells", "setting": "[6]", "result": "minimal cytotoxicity"},
      {"measurement": "change in percentage of HCV+ cells (NS3 staining)", "setting": "GT 1a/2a HCV [7]; 20% HCV+ at baseline, PRO0371155 1 µM, IFN-alpha 10 IU/mL", "result": "more gradual decline"},
      {"measurement": "day of viral breakthrough in the presence of compound", "setting": "GT 1a/2a HCV [7]; [8]", "result": 21, "unit": "days"},
      {"measurement": "time to loss of viral suppression and emergence of drug resistance", "setting": "GT 1a/2a HCV [7]; [8]", "result": "~3", "unit": "weeks"},
      {"measurement": "fate of infected cells on long term treatment", "setting": "GT 1a/2a HCV [7]; culture initially 90% HCV+, 1 µM", "result": "eradicated"},
      {"measurement": "viral rebound during washout period", "setting": "GT 1a/2a HCV [7]; drug released at day 116, passaged additional 30 days, 90% HCV+ culture", "result": "not observed"},
      {"measurement": "EC50", "setting": "HCVpp GT 1b V719A", "result": 273, "unit": "nM"},
      {"measurement": "fold change of EC50 vs parent GT 1b, V719A", "setting": "HCVpp GT 1b V719A", "result": 0.9, "unit": "×"},
      {"measurement": "EC50", "setting": "HCVpp V719G", "result": "> 1000", "unit": "nM"},
      {"measurement": "loss in susceptibility, V719G vs GT1a in the HCVpp assay", "setting": "HCVpp V719G", "result": "> 500", "unit": "fold"}
    ]}
  ]
}
